Measurements published in PMC3792051, “Polyenylpyrrole Derivatives Inhibit NLRP3 Inflammasome Activation and Inflammatory Mediator Expression by Reducing Reactive Oxygen Species Production and Mitogen-Activated Protein Kinase Activation” (PLoS ONE, 2013).

Key:
[1] = system: LPS-activated J774A.1 cells; assay: NLRP3 and proIL-1β expression by Western blot; assay type: cell-based, mouse; conditions: J774A.1, 1-40 µM 30 min before LPS 6 h
Method: Cells were washed twice with ice-cold phosphate-buffered saline (PBS) and lysed on ice for 5 min with lysis buffer (20 mM Tris-HCl, pH 7.5, 150 mM NaCl, 1 mM Na 2EDTA, 1 mM EGTA, 1% Triton X-100, 2.5 mM sodium pyrophosphate, 1 mM beta-glycerophosphate, 1 mM Na 3VO4, 1 µg/ml of leupeptin, 1 mM PMSF, protease inhibitor cocktail). The lysate was then centrifuged at 12,000 x g at 4 °C for 10 min and the pellet discarded. […]
Figure 4 Effect of compound 1h on NLRP3 inflammasome activation in LPS+ATP-activated J774A.1 macrophages. (A) J774A.1 macrophages (1 × 10^6/ml; 1 ml) or (B) peritoneal macrophages (1 × 10^5/ml; 1 ml) were incubated with 10-40 µM compound 1h or DMSO for 30 min, then LPS (1 µg/ml) was added and incubation continued for 5.5 h, then the cells were stimulated with ATP (5 mM) for an additional 30 min, then IL-1β in the culture medium was measured by ELISA (A, upper panel; B) and levels of active caspase-1 (p10) (A, lower panel) measured by Western blotting. […] In (E), J774A.1 macrophages (1 × 10^6/ml; 1 ml) were incubated for 30 min with DMSO or 1-40 µM compound 1h, then LPS (1 µg/ml) was added and incubation continued for 6 h, then expression of NLRP3 and proIL-1β was measured by Western blotting. […]

[2] = system: LPS-activated J774A.1 macrophages; assay: IL-6 and TNF-α secretion by ELISA; assay type: cell-based, murine; conditions: J774A.1, 10-40 µM, LPS 1 µg/ml 24 h
Method: (§1) The effects of the test samples on IL-1β, TNF-α, and IL-6 production were measured by ELISA according to the manufacturer’s instructions. In brief, 50 µl of biotinylated antibody reagent and 50 µl of supernatant were added to a stripwell plate precoated with anti-mouse IL-1β, TNF-α, or IL-6 antibodies, which was then incubated at room temperature for 2 h. After washing the plate three times with washing buffer, 100 µl of diluted streptavidin-HRP concentrate was added to each well and the plate incubated at room temperature for 30 min. The washing process was repeated, then 100 µl of a premixed tetramethylbenzidine substrate solution was added to each well and the plate incubated at room temperature in the dark for 30 min. After addition of 100 µl of stop solution to each well, the absorbance at 450 nm of each well was measured on a microplate reader.
(§2) Figure 3 Effect of compound 1h on LPS-induced secretion of IL-6 and TNF-α by J774A.1 macrophages, peritoneal macrophages, and JAWSII dendritic cells. (A) J774A.1 macrophages, (B) peritoneal macrophages, or (C) JAWSII dendritic cells (all 4 × 10^5/ml; 1 ml) were incubated for 30 min with 10-40 µM compound 1h or DMSO, then LPS (1 µg/ml) was added and incubation continued for 24 h, then IL-6 levels (left panels) and TNF-α levels (right panels) in the culture medium were measured by ELISA. The data are expressed as the mean ± SD for three separate experiments. *, **, and *** indicate a significant difference at the level of p < 0.05, p < 0.01, or p < 0.001, respectively, compared to the DMSO/LPS group.

[3] = system: LPS-activated JAWSII dendritic cells; assay: IL-6 and TNF-α secretion by ELISA; assay type: cell-based, murine; conditions: 10-40 µM, LPS 1 µg/ml 24 h
Method: as §1, §2

Compound: O=c1cc(O)cc(/C=C/C=C/C=C/C=C/c2[nH]ccc2Cl)o1 [compound 1h]
- LPS-induced proIL-1β expression [1]: inhibited LPS-induced proIL-1β expression in a dose-dependent fashion
- NLRP3 protein expression [1]: increased NLRP3 expression
- LPS-induced IL-6 secretion [2]: reduced secretion of IL-6 and TNF-α
- LPS-induced TNF-α secretion [2]: reduced secretion of IL-6 and TNF-α
- LPS-induced IL-6 secretion [3]: reduced LPS-induced IL-6 and TNF-α secretion
- LPS-induced TNF-α secretion [3]: reduced LPS-induced IL-6 and TNF-α secretion
